Data published in publication PMC10804372, “Degradation by Design: New Cyclin K Degraders from Old CDK Inhibitors” (ACS Chemical Biology, 2024).

What was measured:
PAMPA permeability = type: in vitro ADME; settings: for Papp: pH 7.4, PAMPA, pH7.4, read-out: pH7.4 Papp x 10^-6
Cyclin K [1] = assay: Cyclin K levels by Western blot after single-concentration treatment; type: cell-based, human; settings: HEK293T cells, 1 μM for 2 h; for cyclin K degradation: Western blot; for Remaining Cyclin K (%): quantified from Western blots, mean ± SD, three independent experiments
Experimental: (§1) HEK293T human […] kidney cells were cultured in DMEM (Gibco/Life Technologies), containing 25 mM D-glucose, 4 mM L-glutamine, and 1 mM sodium pyruvate, and supplemented with 10% (v/v) FBS and 1% nonessential amino acids (Gibco/Life Technologies). Cells were incubated at 37 °C in a humidified atmosphere with 5% CO2.
(§2) Cells were washed with PBS and lysed (20 mM HEPES pH 7.5, 10% glycerol, 0.4 M KCl, 0.4% Triton X-100, 15 mM EDTA, and 1× protease and phosphatase inhibitors). The insoluble fraction was removed by centrifugation. Protein quantification was performed using a Bradford assay and compared to a BSA calibration curve. Equal amounts of lysates were run on SDS–PAGE 4–12% Bis–Tris Protein Gels (NuPAGE, Thermo Fisher Scientific) and then transferred onto Immobilon-P PVDF Membrane (Millipore, IPVH00010) using a Mini Trans-Blot Cell (Bio-Rad, 1703930). The membranes were blocked with 5% bovine albumin serum (BSA) in Tris-buffered saline with Tween 20 (TBS-T) and incubated with primary antibodies overnight at 4 °C. The membranes were washed three times with TBS-T and incubated with HRP-conjugated secondary antibody (BioRad) for 2 h. Membranes were washed again three times with TBS-T before being developed using Pierce ECL Western Blotting Substrate (Thermo, 32106) and visualized using LI-COR. Antibodies were purchased from Cell Signaling Technology: anti-GAPDH (D4C6R) and anti-DDB1 (D4C8) or Bethyl Laboratories: anti-Cyclin K (A301-939A). The following HRP-linked secondary antibodies were used by dilution in 5% BSA/TBS-T: antirabbit IgG (BioRad, 5213–2504) and antimouse IgG (BioRad, 103005).
(§3) Unedited blots containing the marker lane are available on request. Western blots were quantified using ImageJ. Cyclin K levels were normalized using GAPDH as a loading control. DC50 values were calculated from concentration–response curves using nonlinear regression fit to a 4-parameter curve by GraphPad Prism.

Cyclin K [2] = assay: Cyclin K degradation concentration-response (DC50, DMax) by Western blot; type: cell-based, human; settings: for DMax (%) / DC50: HEK293T, Western blot quantification, 3 biological repeats; for DC50: read-out: CycK DC50
Experimental: With the aim of comparing the degradation ability of the new analogues, we derived DC50 values by using Western blotting (Table 5). […] This approach has been previously used to improve the potency of BCL6 degraders.[33] We therefore also measured CDK12 affinity using the KINOMEscan binding assay (Table 5).[34]
as §1, §2, §3

CDK12 = target: T1, CDK12 (Homo sapiens, UniProt Q9NYV4); assay: KINOMEscan binding assay (Eurofins DiscoverX); settings: for Kd: KINOMEscan
T1 construct: purchased Eurofins DiscoverX (KINOMEscan service)

HEK293T cells = assay: Proteome-wide quantitation by mass spectrometry (TMT); type: cell-based, human; settings: for log2FC compound 37: 1 uM 2h vs DMSO

T1 sequence (Q9NYV4 whole entry): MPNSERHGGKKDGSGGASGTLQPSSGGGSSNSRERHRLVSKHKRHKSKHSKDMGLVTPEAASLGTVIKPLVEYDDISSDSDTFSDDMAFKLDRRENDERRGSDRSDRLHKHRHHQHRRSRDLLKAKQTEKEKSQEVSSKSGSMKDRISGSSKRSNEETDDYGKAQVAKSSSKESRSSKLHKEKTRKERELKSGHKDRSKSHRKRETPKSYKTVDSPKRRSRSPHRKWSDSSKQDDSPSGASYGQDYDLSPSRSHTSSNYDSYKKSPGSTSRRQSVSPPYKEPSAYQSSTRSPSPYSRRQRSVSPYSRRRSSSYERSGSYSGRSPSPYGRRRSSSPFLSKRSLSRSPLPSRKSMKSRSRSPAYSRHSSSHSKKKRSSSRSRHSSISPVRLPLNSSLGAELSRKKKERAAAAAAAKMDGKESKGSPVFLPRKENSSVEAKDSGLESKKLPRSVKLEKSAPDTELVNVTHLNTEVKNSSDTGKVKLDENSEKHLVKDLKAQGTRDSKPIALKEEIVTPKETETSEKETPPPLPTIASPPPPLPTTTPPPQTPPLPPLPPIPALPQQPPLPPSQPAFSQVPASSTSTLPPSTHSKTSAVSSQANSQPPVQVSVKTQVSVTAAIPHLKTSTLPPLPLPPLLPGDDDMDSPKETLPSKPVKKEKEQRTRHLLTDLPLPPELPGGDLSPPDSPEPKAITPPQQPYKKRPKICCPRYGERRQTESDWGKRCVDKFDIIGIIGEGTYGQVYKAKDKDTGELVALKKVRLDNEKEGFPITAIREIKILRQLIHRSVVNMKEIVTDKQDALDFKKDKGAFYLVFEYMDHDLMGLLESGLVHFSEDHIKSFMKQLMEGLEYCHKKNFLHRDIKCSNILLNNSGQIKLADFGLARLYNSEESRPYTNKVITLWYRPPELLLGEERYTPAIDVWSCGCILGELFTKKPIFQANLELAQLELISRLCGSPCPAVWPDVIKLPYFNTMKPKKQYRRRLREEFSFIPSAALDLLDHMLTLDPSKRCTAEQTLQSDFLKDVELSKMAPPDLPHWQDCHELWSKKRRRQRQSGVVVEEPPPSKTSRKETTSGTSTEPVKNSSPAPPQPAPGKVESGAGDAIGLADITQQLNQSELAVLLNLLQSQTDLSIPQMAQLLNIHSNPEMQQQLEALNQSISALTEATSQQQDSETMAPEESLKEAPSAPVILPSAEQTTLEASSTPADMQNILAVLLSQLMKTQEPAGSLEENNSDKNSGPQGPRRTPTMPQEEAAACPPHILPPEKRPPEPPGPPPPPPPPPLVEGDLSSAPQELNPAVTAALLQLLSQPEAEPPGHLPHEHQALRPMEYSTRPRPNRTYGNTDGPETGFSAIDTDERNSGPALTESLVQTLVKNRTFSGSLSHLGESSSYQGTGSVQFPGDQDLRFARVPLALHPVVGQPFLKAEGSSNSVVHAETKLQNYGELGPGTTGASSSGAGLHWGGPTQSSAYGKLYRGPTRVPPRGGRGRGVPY

Compound: CC[C@H](CO)Nc1nc(NCc2ccc(C3CCCCC3)cc2)c2ncn(C(C)C)c2n1 [compound 23]
- Papp (PAMPA permeability): 12.7 ×10⁻⁶ cm/s
- cyclin K degradation (Cyclin K [1]): degradation ability was significantly reduced
- Remaining Cyclin K (%) (Cyclin K [1]): 74 ± 10%

Compound: CC[C@H](CO)Nc1nc(NCc2ccc(-c3ccc(O)cn3)cc2)c2ncn(C(C)C)c2n1 [compound 8]
- Papp (PAMPA permeability): < 0.3 ×10⁻⁶ cm/s
- Remaining Cyclin K (%) (Cyclin K [1]): 94 ± 9%

Compound: CC[C@H](CO)Nc1nc(NCc2ccc(-c3cn[nH]c3)cc2)c2ncn(C(C)C)c2n1 [compound 31]
- PAMPA permeability (PAMPA permeability): low permeability
- Papp (PAMPA permeability): < 0.2 ×10⁻⁶ cm/s
- cyclin K degradation (Cyclin K [1]): complete loss of degradation
- Remaining Cyclin K (%) (Cyclin K [1]): 93 ± 10%

Compound: CC[C@H](CO)Nc1nc(NCc2ccc(-c3ncccc3O)cc2)c2ncn(C(C)C)c2n1 [compound 20]
- Papp (PAMPA permeability): < 0.4 ×10⁻⁶ cm/s
- cyclin K degradation (Cyclin K [1]): reduced degradation ability compared to CR8
- Remaining Cyclin K (%) (Cyclin K [1]): 35 ± 3%

Compound: CC[C@H](CO)Nc1nc(NCc2ccc(-c3ccco3)cc2)c2ncn(C(C)C)c2n1 [compound 29]
- DMax (%) (Cyclin K [2]): >95%
- DC50 (Cyclin K [2]): 199 nM
- fold decrease in degradation ability versus pyridine counterpart (Cyclin K [2]; furan analogues vs 1 (CR8), 36, 40): 4–8 fold
- Kd (CDK12): 640 nM
- Papp (PAMPA permeability): 33.7 ×10⁻⁶ cm/s
- cyclin K degradation (Cyclin K [1]): complete degradation
- Remaining Cyclin K (%) (Cyclin K [1]): 3 ± 2%

Compound: CC[C@H](CO)Nc1nc(NCc2ccc(N3CCOCC3)cc2)c2ncn(C(C)C)c2n1 [compound 25]
- PAMPA permeability (PAMPA permeability): comparable permeabilities
- Papp (PAMPA permeability): 41 ×10⁻⁶ cm/s
- cyclin K degradation (Cyclin K [1]): only partial degradation
- Remaining Cyclin K (%) (Cyclin K [1]): 41 ± 23%

Compound: CC[C@H](CO)Nc1nc(NCc2ccc(-c3cn(C)cn3)cc2)c2ncn(C(C)C)c2n1 [compound 30]
- Papp (PAMPA permeability): < 0.3 ×10⁻⁶ cm/s
- cyclin K degradation (Cyclin K [1]): decreased degradation ability
- Remaining Cyclin K (%) (Cyclin K [1]): 38 ± 21%

Compound: OCCC1CCCCN1c1cc(NCc2ccc(C3=CCOCC3)cc2)n2ncc(Br)c2n1 (stereo not shown) [compound 37]
- DMax (%) (Cyclin K [2]): 75%
- DC50 (Cyclin K [2]): 41 nM
- fold better CDK12 affinity versus CR8/seliciclib-core analogue (CDK12; 36 vs 1, 37 vs 21): 25 fold
- Kd (CDK12): 12 nM
- number of proteins showing at least a −0.5 log2 fold change (HEK293T cells; HEK293T, 1 μM, 2 h treatment): 28 proteins
- cyclin K log2 fold decrease (HEK293T cells; HEK293T, 1 μM, 2 h vs DMSO): 0.75 log2 fold
- log2FC compound 37 (HEK293T cells; protein ARF4): 0.5982
- log2FC compound 37 (HEK293T cells; protein C1orf167): 0.8136
- log2FC compound 37 (HEK293T cells; protein CBX6): -0.9913
- log2FC compound 37 (HEK293T cells; protein CCNE2): 0.934
- log2FC compound 37 (HEK293T cells; protein CCNK (Cyclin-K)): -0.7468
- log2FC compound 37 (HEK293T cells; protein CD9): 0.636
- log2FC compound 37 (HEK293T cells; protein CD59): 1.0368
- log2FC compound 37 (HEK293T cells; protein CD63): 1.1474
- log2FC compound 37 (HEK293T cells; protein CD151): 0.6898
- log2FC compound 37 (HEK293T cells; protein CDKL5): 1.0373
- log2FC compound 37 (HEK293T cells; protein CHCHD2): -1.0001
- log2FC compound 37 (HEK293T cells; protein CHTOP): -0.8383
- log2FC compound 37 (HEK293T cells; protein COPRS): 0.6
- log2FC compound 37 (HEK293T cells; protein COX6B1): 0.6513
- log2FC compound 37 (HEK293T cells; protein COX7A2): -1.2026
- log2FC compound 37 (HEK293T cells; protein DCDC1): 1.1229
- log2FC compound 37 (HEK293T cells; protein DDX56): -0.6203
- log2FC compound 37 (HEK293T cells; protein DHX58): 0.8865
- log2FC compound 37 (HEK293T cells; protein ECI1): 0.6918
- log2FC compound 37 (HEK293T cells; protein EI24): 0.7719
- log2FC compound 37 (HEK293T cells; protein FAM234A): 0.6256
- log2FC compound 37 (HEK293T cells; protein FITM2): 0.6697
- log2FC compound 37 (HEK293T cells; protein FYTTD1): -2.375
- log2FC compound 37 (HEK293T cells; protein H2AC6): -2.0131
- log2FC compound 37 (HEK293T cells; protein H2AC14): -1.9547
- log2FC compound 37 (HEK293T cells; protein HES1): -0.614
- log2FC compound 37 (HEK293T cells; protein HEY1): -0.6221
- log2FC compound 37 (HEK293T cells; protein HMGN2): -0.636
- log2FC compound 37 (HEK293T cells; protein KCTD1): 0.7125
- log2FC compound 37 (HEK293T cells; protein LIPA): 0.6704
- log2FC compound 37 (HEK293T cells; protein LPCAT3): 1.2861
- log2FC compound 37 (HEK293T cells; protein LPIN2): 0.6164
- log2FC compound 37 (HEK293T cells; protein LSM1): 0.8572
- log2FC compound 37 (HEK293T cells; protein MBTPS2): 0.6567
- log2FC compound 37 (HEK293T cells; protein MEIS1): -0.7346
- log2FC compound 37 (HEK293T cells; protein MGARP): 0.6836
- log2FC compound 37 (HEK293T cells; protein MSMO1): 0.6345
- log2FC compound 37 (HEK293T cells; protein MT-ND4): 0.6222
- log2FC compound 37 (HEK293T cells; protein NSA2): -1.3835
- log2FC compound 37 (HEK293T cells; protein NXT2): 1.1373
- log2FC compound 37 (HEK293T cells; protein PPP1CB): -0.7306
- log2FC compound 37 (HEK293T cells; protein PPP1R15B): -0.7195
- log2FC compound 37 (HEK293T cells; protein PRNP): 0.8396
- log2FC compound 37 (HEK293T cells; protein RER1): 0.5962
- log2FC compound 37 (HEK293T cells; protein RPF1): -0.9869
- log2FC compound 37 (HEK293T cells; protein RPS14): -0.5979
- log2FC compound 37 (HEK293T cells; protein RPS29): -0.7373
- log2FC compound 37 (HEK293T cells; protein SIAE): 0.6299
- log2FC compound 37 (HEK293T cells; protein SLC44A2): 0.8263
- log2FC compound 37 (HEK293T cells; protein SNAI2): -1.0919
- log2FC compound 37 (HEK293T cells; protein SURF6): -0.5977
- log2FC compound 37 (HEK293T cells; protein TMSB4X): -0.7637
- log2FC compound 37 (HEK293T cells; protein TOB1): -1.2431
- log2FC compound 37 (HEK293T cells; protein TOB2): -0.8728
- log2FC compound 37 (HEK293T cells; protein TVP23C): 0.6132
- log2FC compound 37 (HEK293T cells; protein WHAMM): -1.0385
- log2FC compound 37 (HEK293T cells; protein ZBTB17): 0.799
- log2FC compound 37 (HEK293T cells; protein ZKSCAN2): -0.5989
- log2FC compound 37 (HEK293T cells; protein ZNF92): -0.7406
- log2FC compound 37 (HEK293T cells; protein ZNF385A): -0.6523
- cyclin K degradation (Cyclin K [1]): only partial degradation
- Remaining Cyclin K (%) (Cyclin K [1]): 32 ± 11%
